Assay results reported in a compilation of properties of binary mixtures (doi:10.1007/s11426-012-4655-1).

Experiment: xn = mol fraction of the nth substance listed
Details: 101 kPa

CCCCCCCCn1cc[n+](C)c1.[Cl-] + CCCCCCCCn1cc[n+](C)c1.F[B-](F)(F)F
x1 = 1
Details	electrical conductivity [S/m]	viscosity [mPa·s]
303 K	0.0021	–
308 K	0.0035	–
318 K	0.0086	–
323 K	0.0129	–
323.15 K	–	2043
328 K	0.0187	–
333 K	0.0266	–
333.15 K	–	930

CCCCCCCCn1cc[n+](C)c1.F[B-](F)(F)F + CCCCCCCCn1cc[n+](C)c1.[Cl-]
Details	electrical conductivity [S/m]	viscosity [mPa·s]
303 K, x2 = 0.2	0.0443	–
303 K, x2 = 0.4	0.0225	–
303 K, x2 = 0.6	0.011	–
303.15 K, x2 = 0.2	–	530
303.15 K, x2 = 0.6	–	2399
308 K, x2 = 0	0.107	–
308 K, x2 = 0.2	0.0605	–
308 K, x2 = 0.4	0.0317	–
308 K, x2 = 0.6	0.0163	–
308 K, x2 = 0.8	0.0085	–
308.15 K, x2 = 0	–	194
308.15 K, x2 = 0.2	–	380
308.15 K, x2 = 0.4	–	760
308.15 K, x2 = 0.6	–	1565
313 K, x2 = 0	0.137	–
313 K, x2 = 0.2	0.0801	–
313 K, x2 = 0.4	0.0438	–
313 K, x2 = 0.8	0.0128	–
313.15 K, x2 = 0	–	149
313.15 K, x2 = 0.2	–	279
313.15 K, x2 = 0.4	–	530
313.15 K, x2 = 0.6	–	1065
313.15 K, x2 = 0.8	–	2245
318 K, x2 = 0.4	0.0595	–
318 K, x2 = 0.8	0.0186	–
318.15 K, x2 = 0	–	116
318.15 K, x2 = 0.2	–	211
318.15 K, x2 = 0.4	–	390
318.15 K, x2 = 0.6	–	740
323 K, x2 = 0	0.215	–
323 K, x2 = 0.2	0.136	–
323 K, x2 = 0.4	0.0791	–
323 K, x2 = 0.8	0.0264	–
323.15 K, x2 = 0	–	92
323.15 K, x2 = 0.2	–	162
323.15 K, x2 = 0.4	–	287
323.15 K, x2 = 0.6	–	520
323.15 K, x2 = 0.8	–	1015
328 K, x2 = 0	0.263	–
328 K, x2 = 0.4	0.102	–
328 K, x2 = 0.6	0.0607	–
328 K, x2 = 0.8	0.0366	–
328.15 K, x2 = 0	–	74
328.15 K, x2 = 0.2	–	127
328.15 K, x2 = 0.4	–	216
328.15 K, x2 = 0.6	–	370
328.15 K, x2 = 0.8	–	710
333 K, x2 = 0.2	0.211	–
333 K, x2 = 0.4	0.13	–
333 K, x2 = 0.6	0.0797	–
333 K, x2 = 0.8	0.0514	–
333.15 K, x2 = 0.2	–	100
333.15 K, x2 = 0.4	–	166
333.15 K, x2 = 0.6	–	279
333.15 K, x2 = 0.8	–	500

CCCCCC[n+]1ccn(C)c1.F[P-](F)(F)(F)(F)F + CCCCCC[n+]1ccn(C)c1.[Cl-]
Details	electrical conductivity [S/m]	viscosity [mPa·s]
303 K, x2 = 0	0.0747	–
303 K, x2 = 0.2	0.0399	–
303 K, x2 = 0.4	0.0205	–
303 K, x2 = 0.6	0.0104	–
303 K, x2 = 0.8	0.0054	–
303.15 K, x2 = 0	–	500
308 K, x2 = 0	0.0993	–
308 K, x2 = 0.2	0.0556	–
308 K, x2 = 0.6	0.0158	–
308 K, x2 = 0.8	0.0086	–
308.15 K, x2 = 0.2	–	680
308.15 K, x2 = 0.4	–	1238
313 K, x2 = 0.2	0.0751	–
313 K, x2 = 0.6	0.0235	–
313 K, x2 = 0.8	0.0133	–
313.15 K, x2 = 0	–	273
313.15 K, x2 = 0.2	–	490
313.15 K, x2 = 0.4	–	850
313.15 K, x2 = 0.6	–	1501
318 K, x2 = 0	0.166	–
318 K, x2 = 0.2	0.1	–
318 K, x2 = 0.4	0.0584	–
318 K, x2 = 0.8	0.0199	–
318.15 K, x2 = 0	–	208
318.15 K, x2 = 0.2	–	360
318.15 K, x2 = 0.6	–	1014
323 K, x2 = 0	0.21	–
323 K, x2 = 0.2	0.131	–
323 K, x2 = 0.4	0.0793	–
323 K, x2 = 0.6	0.0476	–
323 K, x2 = 0.8	0.0291	–
323.15 K, x2 = 0	–	162
323.15 K, x2 = 0.2	–	268
323.15 K, x2 = 0.4	–	430
323.15 K, x2 = 0.8	–	1154
328 K, x2 = 0.2	0.166	–
328 K, x2 = 0.4	0.105	–
328 K, x2 = 0.6	0.0648	–
328.15 K, x2 = 0	–	128
328.15 K, x2 = 0.4	–	322
328.15 K, x2 = 0.6	–	500
328.15 K, x2 = 0.8	–	790
333 K, x2 = 0	0.319	–
333 K, x2 = 0.2	0.21	–
333 K, x2 = 0.4	0.137	–
333 K, x2 = 0.6	0.0875	–
333 K, x2 = 0.8	0.0582	–
333.15 K, x2 = 0	–	102
333.15 K, x2 = 0.2	–	159
333.15 K, x2 = 0.4	–	242
333.15 K, x2 = 0.6	–	370
333.15 K, x2 = 0.8	–	550
